# Laboratory results published in ChEMBL document CHEMBL1132263, “Synthesis of caged peptides using caged lysine: application to the synthesis of caged AIP, a highly specific inhibitor of calmodulin-dependent protein kinase II” (Bioorg Med Chem Lett, 1999).
# Where a SMILES comes first, the peptide text is derived from it. The star is where a group is joined. X1 = O=C(OCc1ccccc1[N+](=O)[O-])*; Cbz = O=C(OCc1ccccc1)*
# Target: CaM kinase II (Homo sapiens, UniProt Q13557+Q13555+Q13554+Q9UQM7)
# Experiment: Inhibitory activity of compound against CaMKII
# Type: protein assay
row,IC50,Compound
1,1000 nM,CC(C)C[C@H](NC(=O)[C@H](C)NC(=O)[C@H](CC(=O)O)NC(=O)[C@@H](NC(=O)[C@H](C)NC(=O)[C@H](CCC(=O)O)NC(=O)[C@H](CCC(N)=O)NC(=O)[C@H](CCCN=C(N)N)NC(=O)[C@H](CCCN=C(N)N)NC(=O)[C@H](CC(C)C)NC(=O)[C@H](C)NC(=O)OCc1ccccc1)C(C)C)C(=O)O (Cbz-ALRRQEAVDAL-OH)
2,1200 nM,CC(C)C[C@H](NC(=O)[C@H](C)NC(=O)[C@H](CC(=O)O)NC(=O)[C@@H](NC(=O)[C@H](C)NC(=O)[C@H](CCC(=O)O)NC(=O)[C@H](CCC(N)=O)NC(=O)[C@H](CCCN=C(N)N)NC(=O)[C@H](CCCN=C(N)N)NC(=O)[C@H](CC(C)C)NC(=O)[C@H](C)NC(=O)[C@H](CCCCNC(=O)OCc1ccccc1[N+](=O)[O-])NC(=O)[C@@H](N)CCCCNC(=O)OCc1ccccc1[N+](=O)[O-])C(C)C)C(=O)O (H-K(X1)K(X1)ALRRQEAVDAL-OH)
3,36 nM,CC(C)C[C@H](NC(=O)[C@H](C)NC(=O)[C@H](CC(=O)O)NC(=O)[C@@H](NC(=O)[C@H](C)NC(=O)[C@H](CCC(=O)O)NC(=O)[C@H](CCC(N)=O)NC(=O)[C@H](CCCN=C(N)N)NC(=O)[C@H](CCCN=C(N)N)NC(=O)[C@H](CC(C)C)NC(=O)[C@H](C)NC(=O)[C@H](CCCCN)NC(=O)[C@@H](N)CCCCNC(=O)OCc1ccccc1[N+](=O)[O-])C(C)C)C(=O)O (H-K(X1)KALRRQEAVDAL-OH)
4,32 nM,CC(C)C[C@H](NC(=O)[C@H](C)NC(=O)[C@H](CC(=O)O)NC(=O)[C@@H](NC(=O)[C@H](C)NC(=O)[C@H](CCC(=O)O)NC(=O)[C@H](CCC(N)=O)NC(=O)[C@H](CCCN=C(N)N)NC(=O)[C@H](CCCN=C(N)N)NC(=O)[C@H](CC(C)C)NC(=O)[C@H](C)NC(=O)[C@H](CCCCN)NC(=O)[C@@H](N)CCCCN)C(C)C)C(=O)O (H-KKALRRQEAVDAL-OH)
